This is an account of results in PubChem BioAssay AID1259408 (Genetic Toxicology Data Bank (GENE-TOX), 2018).

The data set deals with GENE-TOX genotoxicity assays, various organisms and cells. The data set is described as follows: GENE-TOX mutagenicity studies. To be noted: for call: Assay Type: In vivo carcinogenicity studies.
Setting [1] is: Species/Cell Type: Escherichia coli polA (W3119 vs P3478), Assay Type: Rec-assay, DNA effects (bacterial DNA repair), Assay Code: RE1T, Evaluation Type: Evaluation A (Pre-1980).
Setting [2] is: Species/Cell Type: Mammalian polychromatic erythrocytes, Assay Type: Micronucleus test, chromosome aberrations, Assay Code: MNT+, Evaluation Type: Evaluation B (Post-1980).
[3] abbreviates: Species/Cell Type: Mammalian polychromatic erythrocytes, Assay Type: Micronucleus test, chromosome aberrations, Assay Code: MNTT, Evaluation Type: Evaluation A (Pre-1980).
[4] abbreviates: Species/Cell Type: Mouse, Sex: Male, Assay Type: Sperm morphology, Assay Code: SPI-, Evaluation Type: Evaluation A (Pre-1980).

Calls of active or inactive are those of the source. How the calls were made is not given here.

Take `Brc1ccccc1`: the mutagenic call under setting [1] was “no conclusion”; the mutagenic call under setting [2] was “active; positive”; the mutagenic call (Species/Cell Type: Saccharomyces cerevisiae, Assay Type: Mitotic recombination or gene conversion, Assay Code: YEH-, Evaluation Type: Evaluation A (Pre-1980)) is “inactive; negative”; the mutagenic call (Species/Cell Type: Salmonella typhimurium (one or more of the five standard strains: TA98, TA100, TA1535, TA1537, and TA1538), Assay Type: Histidine reverse gene mutation, Ames assay, Assay Code: SAL-, Evaluation Type: Evaluation A (Pre-1980)) is “inactive; negative”; the mutagenic call (Species/Cell Type: Salmonella typhimurium, Assay Type: Forward and reverse gene mutation, host-mediated assay, Assay Code: HMA-, Evaluation Type: Evaluation A (Pre-1980)) was “inactive; negative”; the mutagenic call (Species/Cell Type: Syrian hamster embryo (SHE) cells, Assay Type: Cell transformation, clonal assay, Assay Code: CTC-, Evaluation Type: Evaluation A (Pre-1980)) is “inactive; negative”.

Consider `NC1(C(=O)O)CCCC1`, for which the mutagenic call under setting [1] is “no conclusion”.

As to `CCN(CC)CCCC(C)Nc1c2ccc(Cl)cc2nc2ccc(OC)cc12` (stereo unspecified), the mutagenic call was “active; positive” (Species/Cell Type: Escherichia coli polA (W3119 vs P3478), Assay Type: Rec-assay, DNA effects (bacterial DNA repair), Assay Code: RE1+, Evaluation Type: Evaluation A (Pre-1980)); “active; positive” (Species/Cell Type: Human lymphocytes, Assay Type: Sister-chromatid exchange (SCE) in vitro, Assay Code: SCL+, Evaluation Type: Evaluation B (Post-1980)); “active; positive” (Species/Cell Type: Human, Assay Type: Sister-chromatid exchange (SCE) in vitro, Assay Code: SC1+, Evaluation Type: Evaluation B (Post-1980)); “active; positive” under setting [2]; “no conclusion” under setting [3]; “inactive; negative” under setting [4].

For the compound `O=C1c2c(O)ccc(O)c2C(=O)c2c(NCCNCCO)ccc(NCCNCCO)c21`, the mutagenic call (Species/Cell Type: Nonhuman, Assay Type: Sister-chromatid exchange (SCE) in vitro, Assay Code: SC2+, Evaluation Type: Evaluation B (Post-1980)) was “active; positive”.

On to `O=[N+]([O-])c1cccc([N+](=O)[O-])c1Cl`, for which the mutagenic call under setting [1] is listed as “no conclusion”.

As for `ClC1=CC(c2cc(Cl)ccc2Cl)=C(Cl)[C@H]2O[C@@H]12`, the mutagenic call (Species/Cell Type: Salmonella typhimurium (one or more of the five standard strains: TA98, TA100, TA1535, TA1537, and TA1538), Assay Type: Histidine reverse gene mutation, Ames assay, Assay Code: SALT, Evaluation Type: Evaluation A (Pre-1980)) is listed as “no conclusion”.

For the compound `O=S=O`, the mutagenic call (Species/Cell Type: Human lymphocytes, Assay Type: Sister-chromatid exchange (SCE) in vivo, Assay Code: SCY+, Evaluation Type: Evaluation B (Post-1980)) is “active; positive”; the mutagenic call (Species/Cell Type: Tradescantia species, Assay Type: Chromosome aberrations, Assay Code: TRC+, Evaluation Type: Evaluation A (Pre-1980)) was “active; positive”; the mutagenic call (Species/Cell Type: Tradescantia species, Assay Type: Gene mutation, Assay Code: TRM+D, Dose Response: With dose response, Evaluation Type: Evaluation A (Pre-1980)) was “active; positive”.

`NC(=O)N/N=C/c1ccc([N+](=O)[O-])o1`: the mutagenic call is “active; positive” (Species/Cell Type: Bacillus subtilis (H17 vs M45), Assay Type: Rec-assay, spot test, DNA effects (bacterial DNA repair), Assay Code: REW+, Evaluation Type: Evaluation A (Pre-1980)); “inactive; negative” (Species/Cell Type: Chinese hamster ovary (CHO) cells, Assay Type: Forward gene mutation at the HPRT locus, Assay Code: CHO-, Evaluation Type: Evaluation B (Post-1980)); “no conclusion” (Species/Cell Type: Escherichia coli WP2, Assay Type: Tryptophan reverse gene mutation, Assay Code: WP2T, Evaluation Type: Evaluation A (Pre-1980)); “active; positive” (Species/Cell Type: Escherichia coli WP2 UVRA, Assay Type: Tryptophan reverse gene mutation, Assay Code: WPU+D, Dose Response: With dose response, Evaluation Type: Evaluation A (Pre-1980)); “active; positive” (Species/Cell Type: Fischer rat embryo (RLV/1706) cells, Assay Type: Cell transformation, viral enhanced, Assay Code: CTR+, Evaluation Type: Evaluation A (Pre-1980)); “inactive; negative” (Species/Cell Type: Human diploid fibroblasts, Assay Type: Unscheduled DNA synthesis (UDS) in vitro, DNA effects, Assay Code: UDH-, Evaluation Type: Evaluation A (Pre-1980)). The mutagenic call was “no conclusion” under setting [3]; “inactive; negative” under setting [4]; “active; positive” (Species/Cell Type: Neurospora crassa, Assay Type: Forward gene mutation, Assay Code: NEF+, Evaluation Type: Evaluation A (Pre-1980)); “active; positive” (Species/Cell Type: Neurospora crassa, Assay Type: Reverse gene mutation, Assay Code: NER+, Evaluation Type: Evaluation A (Pre-1980)); “inactive; negative” (Species/Cell Type: Nonhuman bone marrow, Assay Type: Chromosome aberrations, in vivo, Assay Code: CY#-, Evaluation Type: Evaluation A (Pre-1980)); “active; positive” (Species/Cell Type: Salmonella typhimurium (one or more of the five standard strains: TA98, TA100, TA1535, TA1537, and TA1538), Assay Type: Histidine reverse gene mutation, Ames assay, Assay Code: SAL+, Evaluation Type: Evaluation A (Pre-1980)). The call (Species/Cell Type: Nonhuman, Assay Code: CCG+L, Evaluation Type: Evaluation A (Pre-1980)) was “active; positive”.

Regarding `CCc1cccc(C)c1N(C(=O)CCl)C(C)COC` (stereo unspecified), where the note is “Species/Cell Type: Zea mays (corn), Assay Type: Gene mutation, Assay Code: ZEM-, Evaluation Type: Evaluation A (Pre-1980)”, the mutagenic call is “inactive; negative”.

With `C=CCc1ccccc1O`, the mutagenic call reads like this: (Species/Cell Type: Human lymphocytes, Assay Type: Sister-chromatid exchange (SCE) in vitro, Assay Code: SCLT, Evaluation Type: Evaluation B (Post-1980)) “no conclusion”; (Species/Cell Type: Human, Assay Type: Sister-chromatid exchange (SCE) in vitro, Assay Code: SC1T, Evaluation Type: Evaluation B (Post-1980)) “no conclusion”.

As to `ONC1CCCCC1`, the mutagenic call is “no conclusion” (Species/Cell Type: Drosophila melanogaster, Assay Type: Sex-linked recessive lethal gene mutation, Assay Code: SRLT, Evaluation Type: Evaluation A (Pre-1980)); “no conclusion” (Species/Cell Type: Drosophila melanogaster, Sex: Male, Assay Type: Heritable translocation test, chromosome aberrations, Assay Code: DHTT, Evaluation Type: Evaluation A (Pre-1980)); “inactive; negative” (Species/Cell Type: Human lymphocytes or leukocytes, Assay Type: Chromosome aberrations in vitro, Assay Code: CY7-, Evaluation Type: Evaluation A (Pre-1980)).

As for `COc1cc([C@@H]2c3cc4c(cc3[C@@H](O)[C@H]3COC(=O)[C@H]23)OCO4)cc(OC)c1O`, the mutagenic call (Species/Cell Type: Chinese hamster ovary (CHO) cells, Assay Type: Forward gene mutation at the HPRT locus, Assay Code: CHOT, Evaluation Type: Evaluation B (Post-1980)) is given as “no conclusion”.

`Cc1ccc2cc3c(c4c2c1CC4)[C@H](O)[C@@H](O)c1ccccc1-3`: the mutagenic call runs as follows: (Species/Cell Type: Chinese hamster lung (V79) cells, Assay Type: Forward gene mutation at the HPRT or ouabain locus, Assay Code: V79-, Evaluation Type: Evaluation A (Pre-1980)) “inactive; negative”; (Species/Cell Type: Mouse prostate cells, Assay Type: Cell transformation, Assay Code: CTM-, Evaluation Type: Evaluation A (Pre-1980)) “inactive; negative”; (Species/Cell Type: Salmonella typhimurium (one or more of the five standard strains: TA98, TA100, TA1535, TA1537, and TA1538), Assay Type: Histidine reverse gene mutation, Ames assay, Assay Code: SAL+*, Activation: With metabolic activation, Evaluation Type: Evaluation A (Pre-1980)) “active; positive”. Besides, the call (Species/Cell Type: Nonhuman, Assay Code: CCGT, Evaluation Type: Evaluation A (Pre-1980)) is reported as “no conclusion”.

As to `O=C[C@H](O)[C@@H](O)[C@H](O)[C@H](O)CO`, the mutagenic call under setting [3] is “no conclusion” and the mutagenic call under setting [4] was “inactive; negative”.

For `O=C(OOC(=O)c1ccccc1)c1ccccc1`, under setting [1], the mutagenic call is given as “no conclusion”.
